Source: article PMC11079024, “Identification of a family of species-selective complex I inhibitors as potential anthelmintics” (Nature Communications, 2024)
pIC50: −log10 of the molar value. Like-named read-outs stand apart in the source and are kept apart here.

Columns and labels:
[1] = system: P. hermaphrodita complex I; assay: In vitro complex I activity assay, P. hermaphrodita mitochondria; format: biochemical, Phasmarhabditis hermaphrodita; details: purified mitochondria
Procedure: (§1) Mitochondria were isolated from the following free-living nematode strains: C. elegans—N2, CB3474, ECA882, ECA917, ECA1075, ECA1080; C. briggsae—AF16; P. pacificus—PS312; and P. hermaphrodita—B178. With the exception of the P. hermaphrodita strain B178, adult worms of each strain were grown in bulk through liquid culture to obtain mitochondria in sufficient quantities. Due to poor growth in liquid media, mixed stage populations of P. hermaphrodita were washed off and collected from NGM plates seeded with OP50. The isolation of mitochondria from all free-living nematode strains followed the protocol previously outlined in Burns et al.[24]. In brief, a 1 L saturated culture of E. coli HB101 was concentrated 20-fold in 50 mL complete S-medium. ~500,000 L1 worms synchronized from an embryo preparation performed the day prior were added to the S-media/HB101 suspension and grown to adulthood over the course of 3.5 days at 20 °C with shaking at 165 rpm. Following growth, worms were collected in 10 ×15 mL conical tubes and washed 7 times in M9 buffer. Worm suspensions were then combined into a single 15 mL conical tube and diluted to a final volume of 15 mL with M9 buffer. 1 mL aliquots of worm suspension were then distributed to 15 × 1.5 mL screw-cap microcentrifuge tubes and were pelleted at 500 g for 1 min. Excess M9 was aspirated without disturbing the worm pellet. 600 μL ice-cold isolate buffer A (250 mM sucrose, 10 mM Tris (pH 7.5), 1 mM EDTA, 1 mM PMSF (freshly prepared)) and 300 μL cold glass beads were then added to each tube. Tubes were incubated on ice for 10 min, and the worms were then lysed by bead beating (6 x 30 s, with 1 min cooling intervals). Tubes containing worm lysate were centrifuged at 1,000 g for 10 min at 4 °C and the supernatant was transferred to 15 new microcentrifuge tubes on ice. The tubes were centrifuged a second time at 1,000 g for 10 min at 4 °C and the supernatant was once again transferred to 15 new microcentrifuge tubes on ice. These tubes were then centrifuged at 16,000 g for 10 min at 4 °C. The resulting mitochondrial pellet was washed twice by re-suspension in 300 μL of ice-cold isolate buffer B (250 mM sucrose, 10 mM Tris (pH 7.5), 1 mM EDTA). Following the final wash, isolation buffer was aspirated from each tube and the pellets were flash-frozen in ethanol/dry ice and stored at −80 °C until needed.
(§2) The enzymatic activities of individual ETC complexes (I-IV) were assessed spectrophotometrically in isolated mitochondria using a Varioskan LUX Multimode plate reader (ThermoFisher Scientific). Mitochondrial pellets previously isolated were thawed on ice and resuspended in ice-cold isolation buffer (250 mM sucrose, 10 mM Tris (pH 7.5), 1 mM EDTA). The BCA assay (Walker, 1994) was used to quantify the protein concentration of mitochondria suspensions; solutions were diluted to a concentration of 0.2 mg/mL for use in all assays. For the complex I assay, mitochondria pellets were freeze-thawed on ice three times to increase enzyme accessibility. […] 20 μL mitochondria suspension was then added/mixed with a pipette to initiate the reaction. Immediately following the addition of mitochondria, absorbance was measured (complex I and II: 600 nm; complex III and IV: 550 nm) in 30 s intervals over 15 min. Enzymatic activity was determined in each reaction by plotting absorbance versus time and calculating the slope of the curve during the initial linear phase of the reaction. […] Percent activity of each complex was calculated by dividing the enzyme-specific activity of each well by the enzyme-specific activity of the corresponding solvent controls.
(§3) Chemical solutions were prepared in complex I assay buffer composed of 25 mM KPi buffer (pH 7.5), 3 mg/mL bovine serum albumin (BSA), 80 μM NADH, 60 μM decylubiquinone, 160 μM DCIP, 2 μM antimycin A and 2 mM KCN. […]

[2] = system: HEK293 cells; details: HEK293 cells
[3] = target: P. pacificus complex I (Pristionchus pacificus, UniProt A0A454XZ18+A0A8R1Z3U8+A4UAP3); assay: In vitro complex I activity assay, P. pacificus mitochondria; format: biochemical
Procedure: as §1, §2, §3

[4] = P. pacificus mitochondria, Mean of replicates, read-out: in vitro complex I activity relative to solvent control
[5] = P. pacificus mitochondria, Mean, read-out: in vitro complex I activity relative to solvent control
[6] = P. pacificus mitochondria, single replicate, read-out: in vitro complex I activity relative to solvent control

In the case of `CC(C)Cc1ccc(C(C)c2nc3ccccc3n2C)cc1` (stereo not shown) [NPD8790], the pIC50 [1] was 5.96, the “toxicity against mammalian cells” value [2] was “low toxicity” and the remaining activity at 0.06 µM ([3]; P. pacificus mitochondria, 0.06 µM, Mean of replicates, read-out: in vitro complex I activity relative to solvent control) was 105%. It also gave a remaining activity at 0.13 µM ([3]; P. pacificus mitochondria, 0.13 µM, Mean of replicates, read-out: in vitro complex I activity relative to solvent control) of 88%, a remaining activity at 0.313 µM [3, 4] of 82% and a remaining activity at 0.625 µM [3, 4] of 75.5%. For the same compound, the remaining activity at 1.5 µM [3, 4] was 68.1%, the remaining activity at 3 µM [3, 4] was 49.1% and the remaining activity at 15 µM [3, 4] was 21.4%. The remaining activity at 37.5 µM [3, 4] was 16.3%, the remaining activity at 75 µM [3, 4] was 11.3% and the remaining activity at 0.0001 µM [3, 5] was 85.3%. It also gave a remaining activity at 0.0001 µM [3, 6] of 79.8%, a remaining activity at 0.0005 µM [3, 5] of 88.9% and a remaining activity at 0.0005 µM [3, 6] of 82.3%. For the same compound, the remaining activity at 0.001 µM ([3]; P. pacificus mitochondria, 0.001 µM, Mean, read-out: in vitro complex I activity relative to solvent control) was 112%, the remaining activity at 0.0025 µM ([3]; P. pacificus mitochondria, 0.0025 µM, Mean, read-out: in vitro complex I activity relative to solvent control) was 110% and the remaining activity at 0.005 µM ([3]; P. pacificus mitochondria, 0.005 µM, Mean, read-out: in vitro complex I activity relative to solvent control) was 117%. It also gave a remaining activity at 0.013 µM ([3]; P. pacificus mitochondria, 0.013 µM, Mean, read-out: in vitro complex I activity relative to solvent control) of 105%, a remaining activity at 0.025 µM ([3]; P. pacificus mitochondria, 0.025 µM, Mean, read-out: in vitro complex I activity relative to solvent control) of 107% and a remaining activity at 0.063 µM ([3]; P. pacificus mitochondria, 0.063 µM, Mean, read-out: in vitro complex I activity relative to solvent control) of 105%. It also gave a remaining activity at 0.125 µM ([3]; P. pacificus mitochondria, 0.125 µM, Mean, read-out: in vitro complex I activity relative to solvent control) of 88%, a remaining activity at 0.313 µM [3, 5] of 82% and a remaining activity at 0.313 µM [3, 6] of 71.1%. It also gave a remaining activity at 0.625 µM [3, 5] of 75.5%, a remaining activity at 1.5 µM [3, 5] of 68.1% and a remaining activity at 3 µM [3, 5] of 49.1%. It also gave a remaining activity at 15 µM [3, 5] of 21.4%, a remaining activity at 37.5 µM [3, 5] of 16.3% and a remaining activity at 75 µM [3, 5] of 11.3%. It also gave a pIC50 ([3]; purified mitochondria) of 5.68.
